# Results reported in PubChem BioAssay (NCI).
#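 Each compound was tested at five concentrations against cells in 96-well plates for 48 hours. GI50 marks 50% less growth. TGI marks complete inhibition of growth.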
# How the values were obtained:
# Test in all cases: inhibition of tumour cell growth, NCI panel, 48 h
# [1] = tested on: K-562 leukemia
# [2] = tested on: SK-MEL-2 melanoma
# [3] = tested on: SF-295 CNS
# [4] = tested on: HOP-62 NSCLC
# [5] = tested on: HOP-92 NSCLC
# [6] = tested on: TK-10 renal
# [7] = tested on: OVCAR-4 ovarian
# [8] = tested on: HCT-116 colon
# [9] = tested on: SNB-75 CNS
# [10] = tested on: SF-539 CNS
# [11] = tested on: RXF 393 renal
# [12] = tested on: A498 renal
# [13] = tested on: 786-0 renal
# [14] = tested on: OVCAR-3 ovarian
# [15] = tested on: NCI-H226 lung
# [16] = tested on: MOLT-4 leukemia
# [17] = tested on: UO-31 renal
# [18] = tested on: NCI-H522 lung
# [19] = tested on: COLO 205 colon
# [20] = tested on: SK-MEL-28 melanoma
# [21] = tested on: U251 CNS
# [22] = tested on: KM12 colon
# [23] = tested on: HT29 colon
# [24] = tested on: LOX IMVI melanoma
# [25] = tested on: ACHN renal
# [26] = tested on: BT-549 breast
# [27] = tested on: UACC-257 melanoma
# [28] = tested on: IGROV1 ovarian
# [29] = tested on: MCF7 breast
# [30] = tested on: HS 578T breast
# [31] = tested on: SK-MEL-5 melanoma
# [32] = tested on: EKVX NSCLC
# [33] = tested on: CAKI-1 renal
# [34] = tested on: OVCAR-8 ovarian
# [35] = tested on: A549 NSCLC
# [36] = tested on: SN12C renal
# [37] = tested on: NCI/ADR-RES ovarian
# [38] = tested on: MDA-MB-435
# [39] = tested on: M14 melanoma
# [40] = tested on: PC-3 prostate
# [41] = tested on: NCI-H23 lung
# [42] = tested on: SNB-19 CNS
# [43] = tested on: MDA-MB-231 breast
# [44] = tested on: SW-620 colon
# [45] = tested on: UACC-62 melanoma
# [46] = tested on: SF-268 CNS
# [47] = tested on: RPMI-8226 leukemia
# [48] = tested on: SR leukemia
# [49] = tested on: DU-145 prostate
# [50] = tested on: HCT-15 colon
# [51] = tested on: HL-60(TB) leukemia
# [52] = tested on: NCI-H460 lung
# [53] = tested on: OVCAR-5 ovarian
structure (smiles),measurement,setting,value
O=[N+]([O-])c1ccc(C2CC3(c4ccccc4)ON=C(c4ccccc4)N3c3ccccc3S2)cc1 (stereo not drawn),GI50,[1],83.6 µM
same,GI50,[2],40.3 µM
same,GI50,[3],80.8 µM
same,GI50,[4],58.9 µM
same,GI50,[5],78.2 µM
same,GI50,[6],0.0149 µM
same,TGI,[6],7.95 µM
same,GI50,[7],76.1 µM
same,GI50,[8],19.7 µM
same,GI50,[9],37.4 µM
same,GI50,[10],68.9 µM
COc1c(N2CCN(CN3C(=O)C(=O)c4ccccc43)C(C)C2)c(F)cc2c(=O)c(C(=O)O)cn(C3CC3)c12 (stereo not drawn),GI50,[11],> 100 µM
same,TGI,[11],> 100 µM
same,GI50,[12],33.6 µM
same,TGI,[12],> 100 µM
same,GI50,[1],47 µM
same,TGI,[1],> 100 µM
same,GI50,[13],> 100 µM
same,TGI,[13],> 100 µM
same,GI50,[2],> 100 µM
same,TGI,[2],> 100 µM
same,GI50,[3],> 100 µM
same,TGI,[3],> 100 µM
same,GI50,[14],98.7 µM
same,TGI,[14],> 100 µM
same,GI50,[15],> 100 µM
same,TGI,[15],> 100 µM
same,GI50,[16],36.8 µM
same,TGI,[16],> 100 µM
same,GI50,[17],> 100 µM
same,TGI,[17],> 100 µM
same,GI50,[18],> 100 µM
same,TGI,[18],> 100 µM
same,GI50,[19],66.5 µM
same,TGI,[19],> 100 µM
same,GI50,[20],> 100 µM
same,TGI,[20],> 100 µM
same,GI50,[21],> 100 µM
same,TGI,[21],> 100 µM
same,GI50,[22],76.2 µM
same,TGI,[22],> 100 µM
same,GI50,[23],47.3 µM
same,TGI,[23],> 100 µM
same,GI50,[24],71.2 µM
same,TGI,[24],> 100 µM
same,GI50,[25],> 100 µM
same,TGI,[25],> 100 µM
same,GI50,[26],> 100 µM
same,TGI,[26],> 100 µM
same,GI50,[27],> 100 µM
same,TGI,[27],> 100 µM
same,GI50,[6],6.85 µM
same,TGI,[6],68.7 µM
same,GI50,[28],> 100 µM
same,TGI,[28],> 100 µM
same,GI50,[29],33.8 µM
same,TGI,[29],> 100 µM
same,GI50,[30],91.2 µM
same,TGI,[30],> 100 µM
same,GI50,[31],35.3 µM
same,TGI,[31],> 100 µM
same,GI50,[32],> 100 µM
same,TGI,[32],> 100 µM
same,GI50,[33],> 100 µM
same,TGI,[33],> 100 µM
same,GI50,[7],> 100 µM
same,TGI,[7],> 100 µM
same,GI50,[34],> 100 µM
same,TGI,[34],> 100 µM
same,GI50,[35],> 100 µM
same,TGI,[35],> 100 µM
same,GI50,[36],47.3 µM
same,TGI,[36],> 100 µM
same,GI50,[37],> 100 µM
same,TGI,[37],> 100 µM
same,GI50,[38],82.3 µM
same,TGI,[38],> 100 µM
same,GI50,[39],> 100 µM
same,TGI,[39],> 100 µM
same,GI50,[40],> 100 µM
same,TGI,[40],> 100 µM
same,GI50,[41],> 100 µM
same,TGI,[41],> 100 µM
same,GI50,[42],> 100 µM
same,TGI,[42],> 100 µM
same,GI50,[43],53.5 µM
same,TGI,[43],> 100 µM
same,GI50,[44],33.5 µM
same,TGI,[44],> 100 µM
same,GI50,[45],47.5 µM
same,TGI,[45],> 100 µM
same,GI50,[46],46 µM
same,TGI,[46],> 100 µM
same,GI50,[47],78.7 µM
same,TGI,[47],> 100 µM
same,GI50,[48],32.1 µM
same,TGI,[48],> 100 µM
same,GI50,[49],49.9 µM
same,TGI,[49],> 100 µM
same,GI50,[8],44.9 µM
same,TGI,[8],> 100 µM
same,GI50,[9],> 100 µM
same,TGI,[9],> 100 µM
same,GI50,[50],55.8 µM
same,TGI,[50],> 100 µM
same,GI50,[51],> 100 µM
same,TGI,[51],> 100 µM
same,GI50,[52],43.4 µM
same,TGI,[52],> 100 µM
same,GI50,[53],13.6 µM
same,TGI,[53],99.4 µM
same,GI50,[10],> 100 µM
same,TGI,[10],> 100 µM
